One test concerns the target T1, α-7 nicotinic acetylcholine receptor channel expressed in HEK 293 cells (Rattus norvegicus, UniProt Q05941).
T1 construct: expressed in transfected cells
As to the kind of experiment: Ca2+-sensitive fluorescence-based FLIPR assay, α7 nicotinic ACh receptor channel function (agonist). Type of test: cell-based. To be noted: FLIPR α7 (EC50, nM), Table 1; HEK 293 cells, agonist Ca2+ flux. A digest of the protocol: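 Potency and efficacy derived from kinetic FLIPR Ca²⁺-flux fluorescence, recorded 3 min after compound addition in Hanks buffer following a 10 s baseline.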
On the technique in general: Calcium assays in cells follow changes in intracellular calcium, usually with a dye or a luminescent sensor.
T1 sequence (Q05941 23-502): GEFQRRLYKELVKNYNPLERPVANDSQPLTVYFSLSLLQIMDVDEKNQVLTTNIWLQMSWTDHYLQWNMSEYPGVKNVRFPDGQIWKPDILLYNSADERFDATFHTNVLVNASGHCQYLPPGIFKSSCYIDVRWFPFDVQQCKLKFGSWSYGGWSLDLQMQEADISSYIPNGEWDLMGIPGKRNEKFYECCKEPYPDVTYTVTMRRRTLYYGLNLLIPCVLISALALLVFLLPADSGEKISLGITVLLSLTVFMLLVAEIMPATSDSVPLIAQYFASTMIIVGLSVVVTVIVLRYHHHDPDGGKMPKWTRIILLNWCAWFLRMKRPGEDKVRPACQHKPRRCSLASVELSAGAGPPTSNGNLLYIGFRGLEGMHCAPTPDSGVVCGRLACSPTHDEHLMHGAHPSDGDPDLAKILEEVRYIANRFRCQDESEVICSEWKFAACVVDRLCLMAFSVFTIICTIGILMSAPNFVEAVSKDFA
Take `Cc1nc(NC2=NC[C@@]3(CN4CCC3CC4)O2)sc1C` [Example 187]: a half-maximal effect (EC50) was put at 424 nM.

On to `Brc1cnc(NC2=NC[C@@]3(CN4CCC3CC4)O2)nc1-c1ccccc1` [Example 193], for which the EC50 – broadly, the concentration that produces a half-maximal response – stood at 17 nM.

With `c1cncc(-c2ccnc(NC3=NC[C@@]4(CN5CCC4CC5)O3)n2)c1` [Example 194], the EC50 was found to be 18 nM.

For `c1ccc2c(c1)OCc1cnc(NC3=NC[C@@]4(CN5CCC4CC5)O3)nc1-2` [Example 196], the half-maximal effective concentration (EC50) was found to be 13 nM.

On to `Brc1ccc(NC2=NC[C@@]3(CN4CCC3CC4)O2)nc1` [Example 198], for which the midpoint of the response, the EC50, lay at 15 nM.

Take `c1nc(NC2=NC[C@@]3(CN4CCC3CC4)O2)nc2c1CCC2` [Example 202]: the EC50 was found to be 16 nM.

As to `Brc1cnc(NC2=NC[C@@]3(CN4CCC3CC4)O2)nc1C1CC1` [Example 210], a half-maximal effect (EC50) was put at 9 nM.

For `Clc1cnc(NC2=NC[C@@]3(CN4CCC3CC4)O2)nc1` [Example 213], a half-maximal effect (EC50) was put at 9 nM.

In turn, `COCc1cc(NC2=NC[C@@]3(CN4CCC3CC4)O2)ncn1` [Example 218, (R)—N-(6-(methoxymethyl)pyrimidin-4-yl)-4H-1′-azaspiro[oxazole-5,3′-bicyclo[2.2.2]octan]-2-amine] showed an EC50 of 285 nM.

Still in this test, the particulars now being: FLIPR α7 activity rating (EC50, nM), Table 1; HEK 293 cells, agonist Ca2+ flux.
The compound `Cc1cc(-c2ccccc2)nc(NC2=NC[C@@]3(CN4CCC3CC4)O2)n1` [Example 180] registered an EC50 of 100 to 1000 nM.

On to `Cc1nnc(NC2=NC[C@@]3(CN4CCC3CC4)O2)nc1C` [Example 182], for which the EC50 lay within 100 to 1000 nM.

`FC(F)(F)Oc1ccc2[nH]nc(NC3=NC[C@@]4(CN5CCC4CC5)O3)c2c1` [Example 183] displayed an EC50 of under 100 nM.

For the compound `Cc1cnc(NC2=NC[C@@]3(CN4CCC3CC4)O2)c(C)n1` [Example 186], the EC50 is 100 to 1000 nM.

`Cc1nc(NC2=NC[C@@]3(CN4CCC3CC4)O2)sc1C` [Example 187] came in with an EC50 of 100 to 1000 nM.

`c1ccc(-c2n[nH]c(NC3=NC[C@@]4(CN5CCC4CC5)O3)n2)cc1` [Example 188] came in with an EC50 of 1000 to 100000 nM.

Take `Cc1nc(NC2=NC[C@@]3(CN4CCC3CC4)O2)sc1-c1ccccc1` [Example 189]: the EC50 was in the range of 100 to 1000 nM.

Compound `Cn1ccc(NC2=NC[C@@]3(CN4CCC3CC4)O2)n1` [Example 190] came in with an EC50 of 1000 to 100000 nM.

In turn, `Cc1cnc(NC2=NC[C@@]3(CN4CCC3CC4)O2)nc1-c1ccccc1` [Example 191] had a 50% effective concentration (EC50) of under 100 nM.

In turn, `c1ccc(-c2ccnc(NC3=NC[C@@]4(CN5CCC4CC5)O3)n2)nc1` [Example 192] yielded an EC50 of 100 to 1000 nM.

`Brc1cnc(NC2=NC[C@@]3(CN4CCC3CC4)O2)nc1-c1ccccc1` [Example 193]: the EC50 is under 100 nM.

`c1cncc(-c2ccnc(NC3=NC[C@@]4(CN5CCC4CC5)O3)n2)c1` [Example 194] came in with an EC50 of under 100 nM.

`c1ccc(-c2nc(NC3=NC[C@@]4(CN5CCC4CC5)O3)ncc2-n2cncn2)cc1` [Example 195] registered an EC50 of 1000 to 100000 nM.

Consider `c1ccc2c(c1)OCc1cnc(NC3=NC[C@@]4(CN5CCC4CC5)O3)nc1-2` [Example 196], for which the EC50 is under 100 nM.

`Fc1ccc(NC2=NC[C@@]3(CN4CCC3CC4)O2)nc1` [Example 197]: the EC50 is under 100 nM.

Take `Brc1ccc(NC2=NC[C@@]3(CN4CCC3CC4)O2)nc1` [Example 198]: the EC50 was under 100 nM.

Regarding `COc1cc(NC2=NC[C@@]3(CN4CCC3CC4)O2)ccn1` [Example 199], the EC50 lay in the range of 1000 to 100000 nM.

`Fc1ccc2nc(NC3=NC[C@@]4(CN5CCC4CC5)O3)sc2c1` [Example 200] gave an EC50 of under 100 nM.

The compound `c1nc(NC2=NC[C@@]3(CN4CCC3CC4)O2)nc2c1CCCC2` [Example 201] registered a 50% effective concentration (EC50) of under 100 nM.

The compound `c1nc(NC2=NC[C@@]3(CN4CCC3CC4)O2)nc2c1CCC2` [Example 202] gave an EC50 of under 100 nM.

In turn, `Cc1nc(NC2=NC[C@@]3(CN4CCC3CC4)O2)nc(Cl)c1C` [Example 203] had an EC50 of under 100 nM.

`O=C1CCCc2nc(NC3=NC[C@@]4(CN5CCC4CC5)O3)ncc21` [Example 204] yielded an EC50 of 100 to 1000 nM.

Regarding `N#Cc1ccnc(NC2=NC[C@@]3(CN4CCC3CC4)O2)c1` [Example 205], the EC50 is 100 to 1000 nM.

In the case of `FC(F)(F)c1cccc2c(NC3=NC[C@@]4(CN5CCC4CC5)O3)n[nH]c12` [Example 206], the EC50 fell in the range of 1000 to 100000 nM.

On to `c1ccc(-c2ccc(NC3=NC[C@@]4(CN5CCC4CC5)O3)nc2)cc1` [Example 207], for which the EC50 lay in the range of 100 to 1000 nM.

With `COc1ccc2c(c1)nc(NC1=NC[C@@]3(CN4CCC3CC4)O1)n2C` [Example 208], the EC50 is 1000 to 100000 nM.

With `c1cc(C2CC2)nc(NC2=NC[C@@]3(CN4CCC3CC4)O2)n1` [Example 209], the EC50 was under 100 nM.

Compound `Brc1cnc(NC2=NC[C@@]3(CN4CCC3CC4)O2)nc1C1CC1` [Example 210] registered a concentration for a half-maximal effect (EC50) of under 100 nM.

`COc1ccc2c(NC3=NC[C@@]4(CN5CCC4CC5)O3)nn(C)c2c1` [Example 211]: the EC50 was in the range of 100 to 1000 nM.

On to `COc1ccc2c(c1)c(NC1=NC[C@@]3(CN4CCC3CC4)O1)nn2C` [Example 212], for which the EC50 is 1000 to 100000 nM.

In the case of `Clc1cnc(NC2=NC[C@@]3(CN4CCC3CC4)O2)nc1` [Example 213], the EC50 was under 100 nM.

The compound `Clc1ccc(NC2=NC[C@@]3(CN4CCC3CC4)O2)nc1` [Example 214] showed an EC50 of under 100 nM.

`Clc1ccnc(NC2=NC[C@@]3(CN4CCC3CC4)O2)c1` [Example 215]: the EC50 is under 100 nM.

Compound `CC(C)Oc1cnc(NC2=NC[C@@]3(CN4CCC3CC4)O2)cn1` [Example 216] displayed an EC50 of 1000 to 100000 nM.

As for `CN1CCCC1c1ccc(NC2=NC[C@@]3(CN4CCC3CC4)O2)nc1` (stereo partly shown) [Example 217], the EC50 was 1000 to 100000 nM.

Consider `COCc1cc(NC2=NC[C@@]3(CN4CCC3CC4)O2)ncn1` [Example 218, (R)—N-(6-(methoxymethyl)pyrimidin-4-yl)-4H-1′-azaspiro[oxazole-5,3′-bicyclo[2.2.2]octan]-2-amine], for which the EC50 lay in the range of 100 to 1000 nM.

As to `c1nc(NC2=NC[C@@]3(CN4CCC3CC4)O2)ncc1OC1CCCC1` [Example 219, (R)—N-(5-(Cyclopentyloxy)pyrimidin-2-yl)-4H-1′-azaspiro[oxazole-5,3′-bicyclo[2.2.2]octan]-2-amine], the concentration for a half-maximal effect (EC50) was in the range of 1000 to 100000 nM.

`CC(C)c1cc2c(NC3=NC[C@@]4(CN5CCC4CC5)O3)ncnc2s1` [Example 223] registered an EC50 of 100 to 1000 nM.

On to `CCc1cnc(NC2=NC[C@@]3(CN4CCC3CC4)O2)nc1` [Example 227], for which the EC50 was in the range of 100 to 1000 nM.

`FC(F)(F)COc1cc(NC2=NC[C@@]3(CN4CCC3CC4)O2)ncn1` [Example 228, (R)—N-(6-(2,2,2-Trifluoroethoxy)pyrimidin-4-yl)-4H-1′-azaspiro[oxazole-5,3′-bicyclo[2.2.2]octan]-2-amine]: the EC50 was under 100 nM.

On to `CC(C)c1nc(NC2=NC[C@@]3(CN4CCC3CC4)O2)ncc1Br` [Example 229, (R)—N-(5-Bromo-4-isopropylpyrimidin-2-yl)-4H-1′-azaspiro[oxazole-5,3′-bicyclo[2.2.2]octan]-2-amine], for which the EC50 was under 100 nM.

For the compound `Brc1cnc(NC2=NC[C@@]3(CN4CCC3CC4)O2)nc1-c1cccnc1` [Example 230, (R)—N-(5-Bromo-4-(pyridin-3-yl)pyrimidin-2-yl)-4H-1′-azaspiro[oxazole-5,3′-bicyclo[2.2.2]octan]-2-amine], the EC50 was under 100 nM.

The compound `c1nc(NC2=NC[C@@]3(CN4CCC3CC4)O2)cc(OC2CCCC2)n1` [Example 231, (R)—N-(6-(Cyclopentyloxy)pyrimidin-4-yl)-4H-1′-azaspiro[oxazole-5,3′-bicyclo[2.2.2]octan]-2-amine] yielded a half-maximal effective concentration (EC50) of 100 to 1000 nM.

In the case of `CC(C)Oc1cc(NC2=NC[C@@]3(CN4CCC3CC4)O2)ncn1` [Example 232, (R)—N-(6-Isopropoxypyrimidin-4-yl)-4H-1′-azaspiro[oxazole-5,3′-bicyclo[2.2.2]octan]-2-amine], the EC50 lay in the range of 100 to 1000 nM.

`c1cc(NC2=NC[C@@]3(CN4CCC3CC4)O2)ccn1` [Example 235, (R)—N-(Pyridin-4-yl)-4H-1′-azaspiro[oxazole-5,3′-bicyclo[2.2.2]octan]-2-amine] registered an EC50 of 1000 to 100000 nM.

On to `c1ccc(COc2ccc3nc(NC4=NC[C@@]5(CN6CCC5CC6)O4)sc3n2)cc1` [Example 236, (R)—N-(5-(Benzyloxy)thiazolo[5,4-b]pyridin-2-yl)-4H-1′-azaspiro[oxazole-5,3′-bicyclo[2.2.2]octan]-2-amine], for which the EC50 lay within 1000 to 100000 nM.

With `O=c1ccc2nc(NC3=NC[C@@]4(CN5CCC4CC5)O3)sc2[nH]1` [Example 237, (R)-2-(4H-1′-azaspiro[oxazole-5,3′-bicyclo[2.2.2]octane]-2-ylamino)thiazolo[5,4-b]pyridin-5(4H)-one], the EC50 was under 100 nM.

Consider `c1ccc(Oc2cc(NC3=NC[C@@]4(CN5CCC4CC5)O3)ncn2)cc1` [Example 240, (R)—N-(6-Phenoxypyrimidin-4-yl)-4H-1′-azaspiro[oxazole-5,3′-bicyclo[2.2.2]octan]-2-amine], for which the 50% effective concentration (EC50) lay within 100 to 1000 nM.

In turn, `COc1ccc2ncc(NC3=NC[C@@]4(CN5CCC4CC5)O3)nc2c1` [Example 241, (R)—N-(7-methoxyquinoxalin-2-yl)-4H-1′-azaspiro[oxazole-5,3′-bicyclo[2.2.2]octan]-2-amine] had an EC50 of 1000 to 100000 nM.

Turning to `Cc1ccc2nc(NC3=NC[C@@]4(CN5CCC4CC5)O3)cnc2c1` [Example 242, (R)—N-(6-Methylquinoxalin-2-yl)-4H-1′-azaspiro[oxazole-5,3′-bicyclo[2.2.2]octan]-2-amine], the EC50 was 100 to 1000 nM.

On to `Cc1ccc2ncc(NC3=NC[C@@]4(CN5CCC4CC5)O3)nc2c1` [Example 243, (R)—N-(7-Methylquinoxalin-2-yl)-4H-1′-azaspiro[oxazole-5,3′-bicyclo[2.2.2]octan]-2-amine], for which the EC50 was 1000 to 100000 nM.

`c1cncc(-c2cc(NC3=NC[C@@]4(CN5CCC4CC5)O3)ncn2)c1` [Example 244, (R)—N-(6-(Pyridin-3-yl)pyrimidin-4-yl)-4H-1′-azaspiro[oxazole-5,3′-bicyclo[2.2.2]octan]-2-amine] yielded an EC50 of under 100 nM.

In turn, `COc1ncc(-c2cc(NC3=NC[C@@]4(CN5CCC4CC5)O3)ncn2)cn1` [Example 245, (R)—N-(2′-Methoxy-4,5′-bipyrimidin-6-yl)-4H-1′-azaspiro[oxazole-5,3′-bicyclo[2.2.2]octan]-2-amine] gave an EC50 of under 100 nM.

Compound `c1cc(-c2cc(NC3=NC[C@@]4(CN5CCC4CC5)O3)ncn2)ccn1` [Example 246, (R)—N-(6-(Pyridin-4-yl)pyrimidin-4-yl)-4H-1′-azaspiro[oxazole-5,3′-bicyclo[2.2.2]octan]-2-amine] had an EC50 of under 100 nM.

`Cc1nc(NC2=NC[C@@]3(CN4CCC3CC4)O2)ccc1C#N` [Example 247, (R)-6-(4H-1′-Azaspiro[oxazole-5,3′-bicyclo[2.2.2]octane]-2-ylamino)-2-methylnicotinonitrile] had an EC50 of 100 to 1000 nM.

The values above are taken from patent US8309577B2, “Quinuclidine compounds as α-7 nicotinic acetylcholine receptor ligands” (Bristol-Myers Squibb Company, priority 2008, dated 2012).
